Measured values published in patent publication US8273340B2, “Methods and compositions for attracting or repelling cockroaches” (The United States of America, as represented by the …, priority 2008, dated 2012).

System: Male cockroaches (Blattela germanica)
Assay: Y-tube olfactometer bioassay of controlled release pellets aged in a fume hood
Format: in vivo
Conditions: for Percent Response: mean of 3 replicates; for activity in the olfactometer (in words): charcoal as the absorbent, after one hour in the fume hood
Description: Olfactometer Bioassay: The Y-tube bioassay apparatus was similar to that described by Vander Meer et al. (J. Chem. Ecol., 14: 825-838 (1988)). Compressed air (breathing-air quality) was passed into the two choice arms at 0.2 l/min for a total flow of 0.4 l/min. Flow rates were adjusted and controlled by two flow meters (Omega Engineering, Inc.). All tubing carrying the air was either copper or Teflon. Prior to evaluating treatment samples, a positive standard was put through the bioassay procedure. The standard was initially an attractive food material (grape flavoring concentrate used at 0.33%) and later 0.5% (w/v) methyl tiglate, one of the compounds of the present invention, in white, light mineral oil (Aldrich Chemical Co.). […] Test samples (10.0 μl) and the solvent blank (mineral oil, 10.0 μl) were applied to filter paper strips (0.3×1.0 cm, Whatman No. 1) and then each was placed into one of the two choice arms. Male cockroaches (Blattela germanica) were prepared for their introduction into the olfactometer by placing them in a Teflon tube (3 cm×0.8 cm) that had one end blocked with a piece of copper mesh screen. The open end of tube was closed with a lightly attached piece of tape. The cockroaches were introduced individually by removing the tape and quickly inserting the Teflon tube into the entrance arm of the olfactometer. […] The initial choice of the cockroach was recorded. The cockroach was removed and the process was repeated 10 times with the same test and blank samples. The 10 choices usually required less than 5 minutes to complete. After each set of 10 cockroaches had made their choice, the olfactometer was rinsed with acetone, dried, and reassembled for the next test. Each sample was retested with the same cockroaches, but with the sample and control in reverse positions. The sum of the results from the two tests represented one replicate. This procedure minimized bias inherent in the apparatus. A null hypothesis of equal numbers of cockroaches in each arm was tested with chi-square analysis. […] Results in-between were neutral.
Controlled Release Formulations: Four esters found to be significant cockroach attractants were selected for evaluation in controlled release formulations-developed by BioGuard, Inc. Six controlled release formulations from BioGuard were evaluated in the olfactometer. The attractants were methyl tiglate, butyl hexanoate, propyl propanoate, and butyl heptanoate. The attractants were absorbed to either coconut shell charcoal pellets or potassium substituted crystalline zeolite pellets, and then coated with water soluble methylcellulose. The powdered methyl cellulose was dissolved in 80° C. water until saturation, cooled to approx 25° C., the pellets immersed into the solution for a 30 sec, and removed and rapidly air dried with 30° C. pre-dried air. The end products were pellets (charcoal=2 mm×4 mm dia.; molecular sieve=4 mm×1.5 mm dia.). […] A single pellet was used in place of the filter paper described above. The control side was left blank.

[1] = Charcoal absorbent, methylcellulose coated pellet, aged 1 hour in fume hood
[2] = Molecular Sieve absorbent, methylcellulose coated pellet, aged 1 hour in fume hood

Compound | Percent Response [1] | Percent Response [2] | activity in the olfactometer (in words) | Percent Response (charcoal controlled release formulation, aged 24 hours in fume hood) | Percent Response (charcoal controlled release formulation, aged 48 hours in fume hood)
CCCOC(=O)CC [Propyl Propanoate] | 65.0% | 50.0% | significantly active |  | 
C/C=C(\C)C(=O)OC [methyl tiglate, methyl ester of tiglic acid (trans-2-methyl-2-butenoic acid (methyl tiglate))] | 76.6% | 50.0% | significantly active | 66.7% | 61.6%
